Laboratory results as given in patent US20110257168A1, “DERIVATIVES OF OXABISPIDINE AS NEURONAL NICOTINIC ACETYLCHOLINE RECEPTOR LIGANDS” (Targacept, Inc., priority 2008, published 2011).

molecular target: T1, Rat α4β2 (Rattus norvegicus, UniProt P09483+P12390); test: Competition binding to rat α4β2 receptors in membrane preparations; conditions: not given
T1 construct: Preparation of membranes from rat tissues; Rat cortices were obtained from Analytical Biological Services; tissue Analytical Biological Services, Incorporated (ABS, Wilmington, Del.); host or cells: rat cortex membranes (female Sprague-Dawley)
Protocol: (§1) Preparation of membranes from rat tissues. Rat cortices were obtained from Analytical Biological Services, Incorporated (ABS, Wilmington, Del.). Tissues were dissected from female Sprague-Dawley rats, frozen and shipped on dry ice. Tissues were stored at −20° C. until needed for membrane preparation. Cortices from 10 rats were pooled and homogenized by Polytron (Kinematica GmbH, Switzerland) in 10 volumes (weight:volume) of ice-cold preparative buffer (KCl, 11 mM; KH2PO4, 6 mM; NaCl 137 mM; Na2HPO4 8 mM; HEPES (free acid), 20 mM; iodoacetamide, 5 mM; EDTA, 1.5 mM; 0.1 mM PMSF pH 7.4). The resulting homogenate was centrifuged at 40,000 g for 20 minutes at 4° C. and the resulting pellet was resuspended in 20 volumes of ice-cold water. After 60-minute incubation at 4° C., a new pellet was collected by centrifugation at 40,000 g for 20 minutes at 4° C. The final pellet was resuspended in preparative buffer and stored at −20° C. On the day of the assay, tissue was thawed, centrifuged at 40,000 g for 20 minutes and then resuspended in PBS (Dulbecco's Phosphate Buffered Saline, Life Technologies, pH 7.4) to a final concentration of 2-3 mg protein/mL. Protein concentrations were determined using the Pierce BCA Protein Assay kit (Pierce Biotechnology, Rockford, Ill.), with bovine serum albumin as the standard. Preparation of membranes from clonal cell lines. Cells were harvested in ice-cold PBS, pH 7.4, then homogenized with a polytron (Brinkmann Instruments, Westbury, N.Y.). Homogenates were centrifuged at 40,000 g for 20 minutes (4° C.). The pellet was resuspended in PBS and protein concentration determined using the Pierce BCA Protein Assay kit (Pierce Biotechnology, Rockford, Ill.).
(§2) Competition binding to receptors in membrane preparations. Binding to nicotinic receptors was assayed on membranes using standard methods adapted from published procedures (Lippiello and Fernandes, 1986; Davies et al., 1999). In brief, membranes were reconstituted from frozen stocks (approximately 0.2 mg protein) and incubated for 2 h on ice in […] assay buffer (PBS) in the presence of competitor compound (0.001 nM to […]) and radioligand. [^3H]-nicotine (L-(−)-[N-methyl-3H]-nicotine, 69.5 Ci/mmol, Perkin-Elmer Life Sciences) was used for human α4β2 binding studies. [^3H]-epibatidine (52 Ci/mmol, Perkin-Elmer Life Sciences) was used for binding studies at the other receptor subtypes. Incubation was terminated by rapid filtration on a multimanifold tissue harvester (Brandel, Gaithersburg, Md.) using GF/B filters presoaked in 0.33% polyethyleneimine (w/v) to reduce non-specific binding. Filters were washed 3 times and the radioactivity retained was determined by liquid scintillation counting.
(§3) Binding data analysis. Binding data were expressed as percent total control binding. Replicates for each point were averaged and plotted against the log of drug concentration. The IC50 (concentration of the compound that produces 50% inhibition of binding) was determined by least squares non-linear regression using GraphPad Prism software (GraphPAD, San Diego, Calif.). Ki was calculated using the Cheng-Prusoff equation (Cheng and Prusoff, 1973).

| Compound | Ki [nM] |
| --- | --- |
| Clc1ccc(Oc2cncc(N3CC4CNCC(C3)O4)c2)cc1Cl [3-(5-(3,4-dichlorophenoxy)pyridin-3-yl)-9-oxa-3,7-diazabicyclo[3.3.1]nonane] | 11 |
| c1ncc(N2CC3CNCC(C2)O3)cc1OCC1CC1 [3-(5-(cyclopropylmethoxy)pyridin-3-yl)-9-oxa-3,7-diazabicyclo[3.3.1]nonane] | 2.9 |
| N#Cc1cc(N2CC3CNCC(C2)O3)cnc1F [3-(5-cyano-6-fluoropyridin-3-yl)-9-oxa-3,7-diazabicyclo[3.3.1]nonane] | 24 |
| N#Cc1cncc(N2CC3CNCC(C2)O3)c1 [3-(5-cyanopyridin-3-yl)-9-oxa-3,7-diazabicyclo[3.3.1]nonane] | 11 |
| Clc1ncc(N2CC3CNCC(C2)O3)cc1C1CC1 [3-(5-cyclopropyl-6-chloropyridin-3-yl)-9-oxa-3,7-diazabicyclo[3.3.1]nonane] | 14 |
| c1ncc(N2CC3CNCC(C2)O3)cc1C1CC1 [3-(5-cyclopropylpyridin-3-yl)-9-oxa-3,7-diazabicyclo[3.3.1]nonane] | 6.4 |
| CC(C)Oc1cncc(N2CC3CNCC(C2)O3)c1 [3-(5-isopropoxypyridin-3-yl)-9-oxa-3,7-diazabicyclo[3.3.1]nonane] | 1.3 |
| COc1cncc(N2CC3CNCC(C2)O3)c1 [3-(5-methoxypyridin-3-yl)-9-oxa-3,7-diazabicyclo[3.3.1]nonane] | 1.9 |
| Cc1cncc(N2CC3CNCC(C2)O3)c1 [3-(5-methylpyridin-3-yl)-9-oxa-3,7-diazabicydo[3.3.1]nonane] | 0.5 |
| FC(F)(F)c1cncc(N2CC3CNCC(C2)O3)c1 [3-(5-trifluoromethylpyridin-3-yl)-9-oxa-3,7-diazabicyclo[3.3.1]nonane] | 9.7 |
| FC(F)Oc1cc(N2CC3CNCC(C2)O3)cnc1Cl [3-(6-chloro-5-(difluoromethoxy)pyridin-3-yl)-9-oxa-3,7-diazabicyclo[3.3.1]nonane] | 0.08 |
| Clc1ccc(N2CC3CNCC(C2)O3)cn1 [3-(6-chloropyridin-3-yl)-9-oxa-3,7-diazabicydo[3.3.1]nonane] | 5.2 |
| N#Cc1ncc(N2CC3CNCC(C2)O3)cc1OC(F)F [3-(6-cyano-5-(difluoromethoxy)pyridin-3-yl)-9-oxa-3,7-diazabicyclo[3.3.1]nonane] | 0.12 |
| Fc1ccc(N2CC3CNCC(C2)O3)cn1 [3-(6-fluoropyridin-3-yl)-9-oxa-3,7-diazabicyclo[3.3.1]nonane] | 16 |

molecular target: human α4β2 (Homo sapiens, UniProt P17787+P43681); test: Competition binding to human α4β2 receptors in membrane preparations; conditions: membranes, [3H]-nicotine competition; Ki by Cheng-Prusoff; read-out: human α4β2 Ki
Protocol: (§4) SH-EP1/human α4β2 (Eaton et al., 2003), SH-EP1/human α4β4 (Gentry et al., 2003), SH-EP1/α6β3β4α5 (Grinevich et al., 2005), TE671/RD and SH-SY5Y cell lines (obtained from Dr. Ron Lukas, Barrow Neurological Institute) were maintained in proliferative growth phase in Dulbecco's modified Eagle's medium (Gibco/BRL) with 10% horse serum (Gibco BRL), 5% fetal bovine serum (HyClone, Logan Utah), 1 mM sodium pyruvate, 4 mM L-glutamine. For maintenance of stable transfectants, the α4β2 and α4β4 cell media was supplemented with 0.25 mg/mL zeocin and 0.13 mg/mL hygromycin B. Selection was maintained for the α6β3β4α5 cells with 0.25 mg/mL of zeocin, 0.13 mg/mL of hygromycin B, 0.4 mg/mL of geneticin, and 0.2 mg/mL of blasticidin. HEK/human α7/RIC3 cells (obtained from J. Lindstrom, U. Pennsylvania) were maintained in proliferative growth phase in Dulbecco's modified Eagle's medium (Gibco/BRL) with 10% fetal bovine serum (HyClone, Logan Utah), 1 mM sodium pyruvate, 4 mM L-glutamine, 0.4 mg/mL geneticin; 0.2 mg/ml hygromycin B.
as §1, §2
(§5) Binding data analysis. Binding data were expressed as percent total control binding. Replicates for each point were averaged and plotted against the log of drug concentration. […]

| Compound | Ki [nM] |
| --- | --- |
| Clc1ccc(Oc2cncc(N3CC4CNCC(C3)O4)c2)cc1Cl [3-(5-(3,4-dichlorophenoxy)pyridin-3-yl)-9-oxa-3,7-diazabicyclo[3.3.1]nonane] | 3.5 |
| c1ncc(N2CC3CNCC(C2)O3)cc1OCC1CC1 [3-(5-(cyclopropylmethoxy)pyridin-3-yl)-9-oxa-3,7-diazabicyclo[3.3.1]nonane] | 0.5 |
| N#Cc1cc(N2CC3CNCC(C2)O3)cnc1F [3-(5-cyano-6-fluoropyridin-3-yl)-9-oxa-3,7-diazabicyclo[3.3.1]nonane] | 19 |
| N#Cc1cncc(N2CC3CNCC(C2)O3)c1 [3-(5-cyanopyridin-3-yl)-9-oxa-3,7-diazabicyclo[3.3.1]nonane] | 2.7 |
| Clc1ncc(N2CC3CNCC(C2)O3)cc1C1CC1 [3-(5-cyclopropyl-6-chloropyridin-3-yl)-9-oxa-3,7-diazabicyclo[3.3.1]nonane] | 0.18 |
| c1ncc(N2CC3CNCC(C2)O3)cc1C1CC1 [3-(5-cyclopropylpyridin-3-yl)-9-oxa-3,7-diazabicyclo[3.3.1]nonane] | 2 |
| CC(C)Oc1cncc(N2CC3CNCC(C2)O3)c1 [3-(5-isopropoxypyridin-3-yl)-9-oxa-3,7-diazabicyclo[3.3.1]nonane] | 0.9 |
| COc1cncc(N2CC3CNCC(C2)O3)c1 [3-(5-methoxypyridin-3-yl)-9-oxa-3,7-diazabicyclo[3.3.1]nonane] | 0.9 |
| Cc1cncc(N2CC3CNCC(C2)O3)c1 [3-(5-methylpyridin-3-yl)-9-oxa-3,7-diazabicydo[3.3.1]nonane] | 0.3 |
| FC(F)(F)c1cncc(N2CC3CNCC(C2)O3)c1 [3-(5-trifluoromethylpyridin-3-yl)-9-oxa-3,7-diazabicyclo[3.3.1]nonane] | 3.8 |
| FC(F)Oc1cc(N2CC3CNCC(C2)O3)cnc1Cl [3-(6-chloro-5-(difluoromethoxy)pyridin-3-yl)-9-oxa-3,7-diazabicyclo[3.3.1]nonane] | 0.16 |
| Clc1ccc(N2CC3CNCC(C2)O3)cn1 [3-(6-chloropyridin-3-yl)-9-oxa-3,7-diazabicydo[3.3.1]nonane] | 1.2 |
| N#Cc1ncc(N2CC3CNCC(C2)O3)cc1OC(F)F [3-(6-cyano-5-(difluoromethoxy)pyridin-3-yl)-9-oxa-3,7-diazabicyclo[3.3.1]nonane] | 0.26 |
| Fc1ccc(N2CC3CNCC(C2)O3)cn1 [3-(6-fluoropyridin-3-yl)-9-oxa-3,7-diazabicyclo[3.3.1]nonane] | 2.5 |

molecular target: T2, Rat α7 (Rattus norvegicus, UniProt Q05941); test: Competition binding to rat α7 receptors in membrane preparations; conditions: membranes, [3H]-epibatidine competition; Ki by Cheng-Prusoff; read-out: Rat α7 Ki
T2 construct: Preparation of membranes from rat tissues; Rat cortices were obtained from Analytical Biological Services; tissue Analytical Biological Services, Incorporated (ABS, Wilmington, Del.); host or cells: rat brain membranes (only cortex is described)
Protocol: as §1, §2, §3

| Compound | Ki [nM] |
| --- | --- |
| Clc1ccc(Oc2cncc(N3CC4CNCC(C3)O4)c2)cc1Cl [3-(5-(3,4-dichlorophenoxy)pyridin-3-yl)-9-oxa-3,7-diazabicyclo[3.3.1]nonane] | 210 |
| c1ncc(N2CC3CNCC(C2)O3)cc1OCC1CC1 [3-(5-(cyclopropylmethoxy)pyridin-3-yl)-9-oxa-3,7-diazabicyclo[3.3.1]nonane] | 9300 |
| CC(C)Oc1cncc(N2CC3CNCC(C2)O3)c1 [3-(5-isopropoxypyridin-3-yl)-9-oxa-3,7-diazabicyclo[3.3.1]nonane] | 61000 |
| COc1cncc(N2CC3CNCC(C2)O3)c1 [3-(5-methoxypyridin-3-yl)-9-oxa-3,7-diazabicyclo[3.3.1]nonane] | 560 |
| Cc1cncc(N2CC3CNCC(C2)O3)c1 [3-(5-methylpyridin-3-yl)-9-oxa-3,7-diazabicydo[3.3.1]nonane] | 200 |
| FC(F)(F)c1cncc(N2CC3CNCC(C2)O3)c1 [3-(5-trifluoromethylpyridin-3-yl)-9-oxa-3,7-diazabicyclo[3.3.1]nonane] | 17000 |
| Clc1ccc(N2CC3CNCC(C2)O3)cn1 [3-(6-chloropyridin-3-yl)-9-oxa-3,7-diazabicydo[3.3.1]nonane] | 210 |
| Fc1ccc(N2CC3CNCC(C2)O3)cn1 [3-(6-fluoropyridin-3-yl)-9-oxa-3,7-diazabicyclo[3.3.1]nonane] | 1400 |

molecular target: T3, Human α7 (Homo sapiens, UniProt P36544); test: Competition binding to human α7 receptors in membrane preparations; conditions: not given
T3 construct: host or cells: HEK cells co-expressing RIC3
Protocol: as §4, §1, §2, §5

| Compound | Ki [nM] |
| --- | --- |
| Clc1ncc(N2CC3CNCC(C2)O3)cc1C1CC1 [3-(5-cyclopropyl-6-chloropyridin-3-yl)-9-oxa-3,7-diazabicyclo[3.3.1]nonane] | 87 |

same assay, conditions: membranes, [3H]-epibatidine competition; Ki by Cheng-Prusoff; read-out: Human α7 Ki

| Compound | Ki [nM] |
| --- | --- |
| Clc1ccc(Oc2cncc(N3CC4CNCC(C3)O4)c2)cc1Cl [3-(5-(3,4-dichlorophenoxy)pyridin-3-yl)-9-oxa-3,7-diazabicyclo[3.3.1]nonane] | 360 |
| N#Cc1cc(N2CC3CNCC(C2)O3)cnc1F [3-(5-cyano-6-fluoropyridin-3-yl)-9-oxa-3,7-diazabicyclo[3.3.1]nonane] | 16000 |
| N#Cc1cncc(N2CC3CNCC(C2)O3)c1 [3-(5-cyanopyridin-3-yl)-9-oxa-3,7-diazabicyclo[3.3.1]nonane] | 2000 |
| c1ncc(N2CC3CNCC(C2)O3)cc1C1CC1 [3-(5-cyclopropylpyridin-3-yl)-9-oxa-3,7-diazabicyclo[3.3.1]nonane] | 1300 |
| COc1cncc(N2CC3CNCC(C2)O3)c1 [3-(5-methoxypyridin-3-yl)-9-oxa-3,7-diazabicyclo[3.3.1]nonane] | 350 |
| Cc1cncc(N2CC3CNCC(C2)O3)c1 [3-(5-methylpyridin-3-yl)-9-oxa-3,7-diazabicydo[3.3.1]nonane] | 4500 |
| FC(F)Oc1cc(N2CC3CNCC(C2)O3)cnc1Cl [3-(6-chloro-5-(difluoromethoxy)pyridin-3-yl)-9-oxa-3,7-diazabicyclo[3.3.1]nonane] | 560 |
| Clc1ccc(N2CC3CNCC(C2)O3)cn1 [3-(6-chloropyridin-3-yl)-9-oxa-3,7-diazabicydo[3.3.1]nonane] | 240 |
| N#Cc1ncc(N2CC3CNCC(C2)O3)cc1OC(F)F [3-(6-cyano-5-(difluoromethoxy)pyridin-3-yl)-9-oxa-3,7-diazabicyclo[3.3.1]nonane] | 940 |
| Fc1ccc(N2CC3CNCC(C2)O3)cn1 [3-(6-fluoropyridin-3-yl)-9-oxa-3,7-diazabicyclo[3.3.1]nonane] | 180 |
